Source: PubChem BioAssay (NCI)
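GI50: concentration for 50% inhibition of growth. TGI: concentration producing complete growth inhibition.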

Tests used:
Experiment in all cases: NCI tumour cell line growth inhibition, 384-well format
ACHN renal = system: ACHN renal
MDA-MB-435 melanoma = system: MDA-MB-435 melanoma
NCI-H226 lung = system: NCI-H226 lung
SF-539 CNS = system: SF-539 CNS
NCI/ADR-RES ovarian = system: NCI/ADR-RES ovarian
NCI-H522 lung = system: NCI-H522 lung
RXF 393 renal = system: RXF 393 renal
DU-145 prostate = system: DU-145 prostate
M14 melanoma = system: M14 melanoma
PC-3 prostate = system: PC-3 prostate
U251 glioblastoma = system: U251 glioblastoma
CCRF-CEM leukemia = system: CCRF-CEM leukemia
NCI-H322M lung = system: NCI-H322M lung

| SMILES | GI50 (ACHN renal) [µM] | TGI (ACHN renal) [µM] | GI50 (MDA-MB-435 melanoma) [µM] | TGI (MDA-MB-435 melanoma) [µM] | GI50 (NCI-H226 lung) [µM] | TGI (NCI-H226 lung) [µM] | GI50 (SF-539 CNS) [µM] | TGI (SF-539 CNS) [µM] | GI50 (NCI/ADR-RES ovarian) [µM] | TGI (NCI/ADR-RES ovarian) [µM] | GI50 (NCI-H522 lung) [µM] | TGI (NCI-H522 lung) [µM] | GI50 (RXF 393 renal) [µM] | TGI (RXF 393 renal) [µM] | GI50 (DU-145 prostate) [µM] | TGI (DU-145 prostate) [µM] | GI50 (M14 melanoma) [µM] | TGI (M14 melanoma) [µM] | GI50 (PC-3 prostate) [µM] | TGI (PC-3 prostate) [µM] | other results |
| --- | --- | --- | --- | --- | --- | --- | --- | --- | --- | --- | --- | --- | --- | --- | --- | --- | --- | --- | --- | --- | --- |
| C=CC(=O)N[C@H]1CCOC[C@H]1Nc1ncc2cc(-c3c(Cl)c(OC)cc(OC)c3Cl)ccc2n1 | 30.6 | > 100 | > 64.3 | > 100 | 4.55 | 20.8 | 13.5 | 28.2 | 12.9 | 30.8 | 13.9 | 32.2 | 8.65 | 26.2 | 27.4 | > 100 | 16.8 | > 69.2 | 20.3 | 66.2 | GI50 (U251 glioblastoma): 15 µM; TGI (U251 glioblastoma): 36.1 µM; GI50 (CCRF-CEM leukemia): 9.81 µM; TGI (CCRF-CEM leukemia): 22.2 µM; GI50 (NCI-H322M lung): 27.7 µM; TGI (NCI-H322M lung): > 100 µM |
| c1cn2cc(-c3ccc4cn[nH]c4c3)nc(Nc3ccc(N4CCOCC4)cc3)c2n1 | 10.7 | 25.1 | 22.6 | > 75.5 | 9.38 | 23 | 4.6 | 16.5 | 11.7 | 29.6 | 3.46 | 12.8 | 2.44 | 13.3 | 10 | 22.7 | 23.5 | 86.6 | 14.1 | 28.7 | GI50 (U251 glioblastoma): 9.72 µM; TGI (U251 glioblastoma): 25.4 µM; GI50 (CCRF-CEM leukemia): > 100 µM; TGI (CCRF-CEM leukemia): > 100 µM; GI50 (NCI-H322M lung): 12.3 µM; TGI (NCI-H322M lung): 37.5 µM |
